For experiment [1], the target named is T1, Growth factor receptor-bound protein 2 (Homo sapiens, UniProt P62993). The experiment can be described thus: Inhibition of Grb2 SH2 domain binding to phospho-EGF receptor intracellular C-terminal domain.
Target sequence in this assay (P62993 whole entry, the tested form may be a part): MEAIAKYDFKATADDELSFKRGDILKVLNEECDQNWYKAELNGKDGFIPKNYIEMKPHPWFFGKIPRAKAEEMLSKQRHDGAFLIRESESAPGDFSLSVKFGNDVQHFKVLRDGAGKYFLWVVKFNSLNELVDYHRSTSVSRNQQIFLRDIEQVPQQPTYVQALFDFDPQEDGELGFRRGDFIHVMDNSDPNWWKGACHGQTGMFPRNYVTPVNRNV
Experiment [2] addresses T1, Growth factor receptor-bound protein 2. Put plainly: Inhibition of Grb2 SH2 domain binding to phospho-EGF receptor intracellular C-terminal domain at 5 mM.
Target sequence in this assay (P62993 whole entry, looked up, the tested form may be a part): as the sequence (P62993 whole entry, the tested form may be a part) above

Bounds are passed on as bounds.

As to `Cc1sc(-c2nccc(N)n2)nc1-c1ccc(OP(=O)(O)O)cc1`, the IC50 in experiment [1] is 25.9 µM.

Molecule `O=P(O)(O)Oc1ccccc1` returned an inhibition in experiment [2] of 55%.

For `Nc1ccnc(NCCc2ccc(OP(=O)(O)O)cc2)n1`, the IC50 in experiment [1] was greater than 200 µM.

For orientation: IC50 means the point on the concentration scale where inhibition reaches its midpoint. As a reminder, the inhibition is the drop in the measured response relative to a control, in per cent. Read a low inhibition as little suppression.
